Laboratory results: patent US20030095933A1, “Anti-aging skin care composition and uses thereof” (priority 2001, published 2003)

Key:
[1] = tested on: facial skin of a human subject; test: Topical application of aqueous solution to facial skin of a human subject before bedtime
Protocol: Topical Application of an Aqueous Solution of Vitamin C. A one gram tablet of Vitamin C (Ascorbic acid; GNC Brand, GNC, Inc.) was dissolved to completion in 1 tablespoon of water. The resulting solution was applied to the facial skin of a human subject immediately before bedtime.
Direct Comparisons of Aqueous Vitamin C Solution to Aqueous Vitamin C Solutions Containing Additional Ingredients. Several direct comparisons were performed to determine whether the addition of additional components could improve the results observed with Vitamin C alone. In the first of these tests, an aqueous solution comprising Vitamin C alone (3 g) was applied to one side of the subject's face immediately before bedtime, while an aqueous solution comprising 3 g of Vitamin C and 600 mg of N-acetyl-cysteine (GNC, Inc.) was applied to the other half of the subject's face at the same time.
A second comparison was then performed. In this study, an aqueous solution comprising Vitamin C (3 g) and Vitamin B5 (500 mg, obtained from GNC, Inc.) was applied to one side of the subject's face immediately before bedtime, while an aqueous solution comprising 3 g of Vitamin C, 600 mg of N-acetyl-cysteine and 10 mg zinc (GNC, Inc.) was applied to the other half of the subject's face at the same time.
Tablets containing 3 g of Vitamin C, 100 mg of Vitamin B1, 500 mg of Vitamin B5 and 500 mg of N-acetyl-cysteine, all obtained from obtained from GNC, Inc., were ground into a powder and mixed together. The mixture was then added to one tablespoon of water and allowed to dissolve to completion, which took approximately 10 hrs. The resulting solution was applied to the facial skin of a human subject immediately before bedtime.
Optimization of ranges for each of the components was determined. For example, the amount of Vitamin C present in the composition described above in Example 2 was varied from 0 g to 5 g.
In an attempt to reduce the slight irritation caused by application of the anti-aging skin care composition and to enhance its effects on fine lines and wrinkles, 100 mg of lipoic acid was added to the anti-aging skin care composition comprising 3 g of Vitamin C, 100 mg of Vitamin B1, 500 mg of Vitamin B5 and 500 mg of N-acetyl-cysteine. […] The resulting solution was again applied to the facial skin of a human subject immediately before bedtime.

[2] = Miscibility of Vitamin E with the aqueous Vitamin C solution; format: physicochemical; details: oils and powders containing Vitamin E
Protocol: Addition of Vitamin E Prevented by Poor Solubility. […] Thus, no further studies of the effects of the addition of Vitamin E to the various anti-aging skin care compositions described herein were performed.

Row | redness or burning of the facial skin upon waking ([1]; after approximately 6-8 hrs of sleep) | sensation upon initial contact with the facial skin ([1]; immediately after application, before the solution dried) | Compound | appearance of the facial skin upon waking ([1]; after approximately 6-8 hrs of sleep, overnight application) | redness and irritation following subsequent applications ([1]; subsequent applications, dose of Vitamin C increased to 2 g and up to 5 g) | miscibility with the aqueous solution containing Vitamin C [2]
1 | slight redness of the facial skin | slight burning sensation | O=C1O[C@H]([C@@H](O)CO)C(O)=C1O [Vitamin C, Ascorbic acid] | noticeably improved | subsided greatly | 
2 |  |  | Vitamin E |  |  | neither oils nor powders containing Vitamin E were miscible
